What was measured:
PBLs = assay: FITC-LPS fluorescence microscopy staining; assay type: binding, human; settings: 20 μg/ml FITC-LPS, 20 min, fixed cells
Procedure: Cells were fixed with 4% paraformaldehyde in PBS for 10 min, and then incubated inside a 37° C. humidified atmosphere containing 5% CO2 for 20 min in RPMI 1640 medium supplemented with 10% FBS and 20 μg/ml of fluorescein isothiocyanate (FITC)-LPS (Sigma, St Louis, Mo.). After washing, cells were visualized using an Olympus IX70 fluorescence microscope. The images were recorded using an Olympus C-3030 Zoom Camedia Digital Camera. […] The inventors employed FITC-LPS to assess binding to TLR4 on the cell surface of melanoma lines. PIC-FITC and zymosan-FITC were not available for assessment. […] The FITC-LPS analysis confirmed TLR4 receptor staining on the melanoma cell surface.

[1] = biological target: T1, TLR4 on the cell surface of melanoma lines (Homo sapiens, UniProt O00206+Q9Y6Y9); assay: FITC-LPS fluorescence microscopy binding; settings: 20 μg/ml FITC-LPS, 20 min, fixed cells
T1 construct: endogenous in cells; host or cells: human melanoma cell lines (fixed with paraformaldehyde); PBLs as comparison
Procedure: Cells were fixed with 4% paraformaldehyde in PBS for 10 min, and then incubated inside a 37° C. humidified atmosphere containing 5% CO2 for 20 min in RPMI 1640 medium supplemented with 10% FBS and 20 μg/ml of fluorescein isothiocyanate (FITC)-LPS (Sigma, St Louis, Mo.). After washing, cells were visualized using an Olympus IX70 fluorescence microscope. The images were recorded using an Olympus C-3030 Zoom Camedia Digital Camera.
The inventors employed FITC-LPS to assess binding to TLR4 on the cell surface of melanoma lines. PIC-FITC and zymosan-FITC were not available for assessment. […] The FITC-LPS analysis confirmed TLR4 receptor staining on the melanoma cell surface.

T1 sequence (O00206 24-839): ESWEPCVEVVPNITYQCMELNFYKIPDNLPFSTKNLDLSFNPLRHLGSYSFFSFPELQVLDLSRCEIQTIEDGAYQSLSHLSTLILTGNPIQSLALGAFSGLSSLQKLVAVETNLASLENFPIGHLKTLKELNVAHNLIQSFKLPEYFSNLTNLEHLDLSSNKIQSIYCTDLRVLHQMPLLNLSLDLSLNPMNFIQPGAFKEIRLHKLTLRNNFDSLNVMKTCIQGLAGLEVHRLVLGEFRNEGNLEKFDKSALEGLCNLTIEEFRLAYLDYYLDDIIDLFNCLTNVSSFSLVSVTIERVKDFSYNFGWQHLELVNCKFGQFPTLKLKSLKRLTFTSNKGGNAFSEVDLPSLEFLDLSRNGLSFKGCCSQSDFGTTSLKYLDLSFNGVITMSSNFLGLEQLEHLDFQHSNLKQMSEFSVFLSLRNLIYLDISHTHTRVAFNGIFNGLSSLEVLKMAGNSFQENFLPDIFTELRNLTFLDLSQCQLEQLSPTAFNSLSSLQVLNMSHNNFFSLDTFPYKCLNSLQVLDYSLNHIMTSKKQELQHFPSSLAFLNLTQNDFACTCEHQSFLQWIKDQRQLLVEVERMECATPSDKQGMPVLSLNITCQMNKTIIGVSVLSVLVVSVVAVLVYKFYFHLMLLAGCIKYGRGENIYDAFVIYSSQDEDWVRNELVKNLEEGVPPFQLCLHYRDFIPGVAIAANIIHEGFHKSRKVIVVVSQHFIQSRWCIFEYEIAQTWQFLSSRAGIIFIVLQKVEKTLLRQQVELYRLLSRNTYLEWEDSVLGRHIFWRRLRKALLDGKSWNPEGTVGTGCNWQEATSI
T1 sequence (Q9Y6Y9 17-160 limits assumed): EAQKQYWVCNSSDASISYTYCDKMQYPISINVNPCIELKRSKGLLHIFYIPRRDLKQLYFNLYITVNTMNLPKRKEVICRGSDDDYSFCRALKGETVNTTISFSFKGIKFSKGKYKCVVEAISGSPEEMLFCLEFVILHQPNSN

fluorescein isothiocyanate (FITC)-LPS [FITC-LPS]
staining intensity of PBLs compared with melanoma cells (PBLs): stained with more intensity
binding to melanoma cell surface (staining) [1]: direct binding of LPS to melanoma cells
